Assay: High fat diet-induced weight gain in mice, osmotic minipump treatment
Type: in vivo
Experimental: FIG. 6 provides a bar graph showing a reduction in high fat diet-induced weight gain in mice by treatment with VU0055768. Wild type 12 week old male C57BL/6J mice were placed on a high fat diet for 5 days. Mice were then implanted subcutaneously with Alzet csmotic minipumps filled with vehicle (25% DMSO, 25% saline, 50% EtOH; n=6) or VU0055768 (25% compound in DMSO, 25% saline, 50% EtOH, n=5) so as to deliver 2.5 mg/kg/day of VU0055768. Mice were maintained on ad libitum access to water and high fat chow, and body weights were measured at the end of an additional 9 days. Bars indicate the mean and standard error of the data, and show a greater than 50% reduction in weight gain as a result of treatment with VU0055768
Eleven 12 weeks old Wt C57 mice were placed on high fat diet for 5 days. Osmotic pumps were filled with vehicle (25% DMSO, 25% saline, 50% EtOH) or VU0055768 (25% compound in DMSO, 25% saline, 50% EtOH) as to deliver 2.5 mg/kg/day, and were then inserted subcutaneously (6 vehicle, 5 compound) into the mice. The mice were fed ad-libidum with high fat diet. Mouse and food weight was measured daily. Statistical analysis of the results was t-test.

Question: For `NCCc1c(-c2ccccc2)n(-c2ccccc2)c2ccccc12` [VU0055768], which “reduction in weight gain” value (C57BL/6J mice on high fat diet, 2.5 mg/kg/day subcutaneous osmotic minipump, body weights after additional 9 days, vs vehicle) is on record?
Answer: greater than 50%

Question: And the weight gain (Wt C57 mice on high fat diet, 2.5 mg/kg/day subcutaneous osmotic pump, t-test vs vehicle)?
Answer: significantly reduced weight gain
